Source: patent US11318178B2, “Lactobacillus reuteri ATG-F4 strain having function of enhancing dopamine secretion and pharmaceutical composition comprising same for prevention or treatment of psychopathy” (ATOGEN CO., LTD, priority 2018, dated 2022)

Key:
[1] = tested on: mouse macrophage cell line RAW264.7; assay: IL-10 ELISA of culture solution of RAW264.7 cells with or without LPS; assay type: cell-based; conditions: 1 μg/ml LPS alone (positive control), 24 hr
Description: In order to measure the anti-inflammatory effect of F4 lactic-acid bacteria, a cytokine quantification experiment using cells was performed. F4 lactic-acid bacteria as a treatment material were subjected to liquid culture in an MRS broth and were then centrifuged, after which the cells of the strain were recovered and concentrated 10-fold. The concentrated solution thus obtained was treated with lysozyme for 1 hr, lysed through sonication, and then quantified through solid content analysis. […] In order to confirm whether the generation of nitric oxide (NO) as an additional inflammation indicator was inhibited in the LPS-induced group, a predetermined amount of the cell culture supernatant obtained in the cell experiment for measuring cytokines was transferred into 96 wells, and 100 μl of a Griess reagent (modified, SIGMA, USA) was injected thereto, after which reaction was carried out at room temperature for 10 min and absorbance at 540 nm was measured using an ELISA reader. The amount of NO that was produced was calculated by comparing the proportion of NO present in the cell culture solution with the LPS-treated group as a control.

serotonin = assay: Serum serotonin ELISA after 4-week feeding of mice; assay type: in vivo, C57BL/6J mice; conditions: 4 weeks in drinking water (F4 about 10^7 CFU/ml; ampicillin 1 g/l); control 3537.2 ng/ml
Text: (§1) Before all animal experiments, animal experimentation was approved and approval number ATG-IACUC-REV-180810 was granted through appropriate procedures by the Institutional Animal Care and Use Committee (IACUC) of AtoGEN, and a guide to ethical animal experiments was followed. 4-week-old C57BL/6J mice were purchased through Central Laboratory Animal (Seoul, Korea), and the experimental groups that were used were a control fed with general feed and drinking water (Ctrl), a gut microbiota dysbiosis experimental group (Amp) fed with general feed and drinking water containing 1 g/l of ampicillin, and an experimental group fed with general feed and drinking water containing about 10^7 CFU/ml of lactic-acid bacteria F4 (F4). Five mice were used for each experimental group. After stabilizing the 4-week-old mice for 1 week, the experiment was conducted for 4 weeks using the experimental groups described above. The entire experiment was independently repeated twice.
(§2) After the 4-week feeding experiment, the mice were anesthetized using ether, and blood was obtained from the heart thereof. […] The serum thus obtained was measured to determine the amounts of dopamine and serotonin in the blood using a dopamine ELISA kit (Abnova, Taiwan) and a serotonin ELISA kit (Abcam, USA).

dopamine = assay: Serum dopamine ELISA after 4-week feeding of mice; assay type: in vivo, C57BL/6J mice; conditions: 4 weeks in drinking water (F4 about 10^7 CFU/ml; ampicillin 1 g/l); control 2.95 ng/ml
Text: as §1, §2

| Molecule | IL-10 production [1] [pg/mL] | serotonin in serum (serotonin) [ng/mL] | dopamine in serum (dopamine) [ng/mL] |
| --- | --- | --- | --- |
| lipopolysaccharide [LPS] | 166.60 | – | – |
| CC1(C)S[C@@H]2[C@H](NC(=O)[C@H](N)c3ccccc3)C(=O)N2[C@H]1C(=O)O [Amp, ampicillin] | – | 2365.0 | 2.09 |
